The assay concerns Swiss mice, Sarcoma 180 sc, mean tumor weight T/C. Description: NCI In Vivo Anticancer Drug Screen. Data for tumor model Sarcoma 180 (subcutaneous) in Swiss mice. To be noted: endpoint: mean tumor weight, higher = larger tumour. A digest of the protocol: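 Transplantable tumors were established in mice, compound was given, then survival or tumor size was recorded. The treated value was divided by the vehicle-control value.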

The mark [1] stands for this setting: dose: 20.0 mg/kg/injection, schedule: Q01DX007 (ip), vehicle: saline.
The mark [2] stands for this setting: dose: 40.0 mg/kg/injection, schedule: Q01DX007 (ip), vehicle: saline.

SMILES strings stand for the structures. Where “and” joins values, the source holds several entries; their conditions need not be identical. Identical values can stand only once.

On to `O=C(O)CCCc1ccc(N(CCCl)CCCl)cc1`, for which the T/C (dose: 1.93 mg/kg/injection, schedule: Q01DX007 (ip), vehicle: carboxymethylcellulose (CMC)) was 49 % of control; the T/C (dose: 2.62 mg/kg/injection, schedule: Q#A X014 (ip), vehicle: carboxymethylcellulose (CMC)) is 99 % of control; the T/C (dose: 3.01 mg/kg/injection, schedule: Q01DX007 (ip), vehicle: carboxymethylcellulose (CMC)) is 88 % of control; the T/C (dose: 3.85 mg/kg/injection, schedule: Q01DX007 (ip), vehicle: carboxymethylcellulose (CMC)) was 41 % of control; the T/C (dose: 5.25 mg/kg/injection, schedule: Q#A X014 (ip), vehicle: carboxymethylcellulose (CMC)) is 69 % of control; the T/C (dose: 5.6 mg/kg/injection, schedule: Q01DX007 (ip), vehicle: carboxymethylcellulose (CMC)) is 71 % of control. Besides, the T/C reads like this: (dose: 6.03 mg/kg/injection, schedule: Q01DX007 (ip), vehicle: carboxymethylcellulose (CMC)) 86 % of control; (dose: 7.0 mg/kg/injection, schedule: Q01DX007 (ip), vehicle: carboxymethylcellulose (CMC)) 52 % of control and 57 % of control; (dose: 7.7 mg/kg/injection, schedule: Q01DX007 (ip), vehicle: carboxymethylcellulose (CMC)) 37 % of control; (dose: 9.33 mg/kg/injection, schedule: Q01DX007 (ip), vehicle: carboxymethylcellulose (CMC)) 63 % of control; (dose: 10.5 mg/kg/injection, schedule: Q01DX007 (ip), vehicle: carboxymethylcellulose (CMC)) 60 % of control; (dose: 10.5 mg/kg/injection, schedule: Q#A X014 (ip), vehicle: carboxymethylcellulose (CMC)) 18 % of control. For the same compound, the T/C runs as follows: (dose: 12.05 mg/kg/injection, schedule: Q01DX007 (ip), vehicle: carboxymethylcellulose (CMC)) 58 % of control; (dose: 14.0 mg/kg/injection, schedule: Q01DX007 (ip), vehicle: carboxymethylcellulose (CMC)) 23 % of control and 48 % of control.
Regarding `CCn1cnc2c(=S)nc[nH]c21`, the T/C (dose: 50.0 mg/kg/injection, schedule: Q01DX007 (ip), vehicle: carboxymethylcellulose (CMC)) was 55 % of control and the T/C (dose: 100.0 mg/kg/injection, schedule: Q01DX007 (ip), vehicle: carboxymethylcellulose (CMC)) is 25 % of control.
Consider `CS(=O)(=O)OCC#CCOS(C)(=O)=O`, for which the T/C is, setting by setting: (dose: 10.0 mg/kg/injection, schedule: Q01DX007 (ip), vehicle: saline) 99 % of control; under setting [1], 84 % of control; under setting [2], 104 % of control.
Consider `CC(=O)N[C@H]1CC[C@H]2[C@@H]3CCC4=CC(=O)CC[C@]4(C)[C@H]3CC[C@]12C`, for which the T/C by setting is: (dose: 5.0 mg/kg/injection, schedule: Q#A X014 (sc), vehicle: steriod suspending solution) 105 % of control; (dose: 50.0 mg/kg/injection, schedule: Q#A X014 (sc), vehicle: steriod suspending solution) 94 % of control; (dose: 100.0 mg/kg/injection, schedule: Q#A X014 (sc), vehicle: steriod suspending solution) 78 % of control.
As to `CC(=O)Nc1cc2oc3ccccc3c2cc1[N+](=O)[O-]`, the T/C was 67 % of control (dose: 220.0 mg/kg/injection, schedule: Q01DX007 (ip), vehicle: methylcellulose (MC)); 67 % of control (dose: 335.0 mg/kg/injection, schedule: Q01DX007 (ip), vehicle: methylcellulose (MC)); 72 % of control (dose: 400.0 mg/kg/injection, schedule: Q01DX007 (ip), vehicle: methylcellulose (MC)); 52 % of control (dose: 500.0 mg/kg/injection, schedule: Q01DX007 (ip), vehicle: methylcellulose (MC)); 77 % of control (dose: 600.0 mg/kg/injection, schedule: Q01DX007 (ip), vehicle: methylcellulose (MC)).
As to `NCCc1ccccc1`, the T/C by setting is: (dose: 31.3 mg/kg/injection, schedule: Q01DX007 (ip), vehicle: saline) 83 % of control; (dose: 62.5 mg/kg/injection, schedule: Q01DX007 (ip), vehicle: saline) 32 % of control.
With `CC1OC2CC(=O)OC2C2=C1C(=O)c1c(O)c3c(c(O)c1C2=O)C1CC(O)C3(O)C(C)O1` (stereo not drawn), the T/C was 114 % of control (dose: 0.01 mg/kg/injection, schedule: Q01DX007 (ip), vehicle: saline); 112 % of control (dose: 0.03 mg/kg/injection, schedule: Q01DX007 (ip), vehicle: saline); 112 % of control (dose: 0.1 mg/kg/injection, schedule: Q01DX007 (ip), vehicle: saline); 113 % of control (dose: 0.2 mg/kg/injection, schedule: Q01DX007 (ip), vehicle: saline); 116 % of control (dose: 0.4 mg/kg/injection, schedule: Q01DX007 (ip), vehicle: saline); 99 % of control (dose: 0.8 mg/kg/injection, schedule: Q01DX007 (ip), vehicle: saline). Further, the T/C is 94 % of control (dose: 1.6 mg/kg/injection, schedule: Q01DX007 (ip), vehicle: saline); 79 % of control (dose: 6.4 mg/kg/injection, schedule: Q01DX007 (ip), vehicle: saline); 88 % of control (dose: 12.0 mg/kg/injection, schedule: Q01DX007 (ip), vehicle: saline); 64 % of control (dose: 12.8 mg/kg/injection, schedule: Q01DX007 (ip), vehicle: saline); 61 % of control (dose: 24.0 mg/kg/injection, schedule: Q01DX007 (ip), vehicle: saline).
Take `Nc1nc(=O)n(C2CC(O)C(CO)O2)cc1F` (stereo not drawn): the T/C is 10 % of control (dose: 22.0 mg/kg/injection, schedule: Q#A X014 (ip), vehicle: saline); 7 % of control (dose: 33.5 mg/kg/injection, schedule: Q#A X014 (ip), vehicle: saline); 3 % of control (dose: 50.0 mg/kg/injection, schedule: Q#A X014 (ip), vehicle: saline); 2 % of control (dose: 75.0 mg/kg/injection, schedule: Q#A X014 (ip), vehicle: saline).
Turning to `O=C1c2ccccc2-c2c3c(cc4ccnc1c24)OCO3`, the T/C runs as follows: (dose: 45.0 mg/kg/injection, schedule: Q01DX007 (ip), vehicle: saline) 81 % of control; (dose: 65.0 mg/kg/injection, schedule: Q01DX007 (ip), vehicle: saline) 67 % of control; (dose: 100.0 mg/kg/injection, schedule: Q01DX007 (ip), vehicle: saline) 75 % of control; (dose: 150.0 mg/kg/injection, schedule: Q01DX007 (ip), vehicle: saline) 47 % of control.
As to `CC1OC(OC2C(CO)OC(O[C@H]3CC[C@@]4(C)C(=CC[C@H]5[C@@H]6C[C@@H]7O[C@@]8(CC[C@H](C)CN8)[C@@H](C)[C@@H]7[C@@]6(C)CC[C@@H]54)C3)C(OC3OC(C)C(O)C(O)C3O)C2O)C(O)C(O)C1O` (stereo partly drawn), the T/C by setting is: (dose: 5.0 mg/kg/injection, schedule: Q01DX007 (ip), vehicle: saline) 51 % of control; (dose: 15.0 mg/kg/injection, schedule: Q01DX007 (ip), vehicle: saline) 62 % of control; under setting [1], 15 % of control; (dose: 30.0 mg/kg/injection, schedule: Q01DX007 (ip), vehicle: saline) 21 % of control; under setting [2], 16 % of control.

As usually defined, the T/C is the ratio of treated to control.

The values above are taken from PubChem BioAssay AID342 (DTP/NCI, 2004).
